Measured values as given in patent US10919885B2, “Compounds and uses thereof” (Yumanity Therapeutics, Inc., priority 2018, dated 2021).
One block for each compound: values may come before it.

Columns and labels:
human SCD1 = human SCD1 (Homo sapiens (Human), UniProt O00767); test: Yeast growth assay, strain expressing human SCD1 as the sole desaturase (reduced growth as surrogate for SCD inhibition); assay type: cell-based; conditions: yeast with OLE1 deleted expressing human SCD1 from a plasmid; growth read as OD600 after 40 h at 30° C.; top drug concentration 33.3 μM
Summary of the method: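 Yeast lacking OLE1 depend on plasmid-borne human SCD1 or SCD5 and are tested in SD-Ura medium without oleic/palmitoleic acid or Tween.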

human SCD5 = human SCD5 (Homo sapiens (Human), UniProt Q86SK9); test: Yeast growth assay, strain expressing human SCD5 as the sole desaturase (reduced growth as surrogate for SCD inhibition); assay type: cell-based; conditions: yeast with OLE1 deleted expressing human SCD5 from a plasmid; growth read as OD600 after 40 h at 30° C.; top drug concentration 33.3 μM
Protocol: Strains expressing SCD1 or SCD5 as the sole desaturase, the human SCD1 and SCD5 genes were used to evaluate inhibition of SCD1/SCD5 using reduced growth as a surrogate for SCD inhibition. These yeast strains express human SCD1 or SCD5 from a plasmid harbored in a strain in which the yeast OLE1 gene is deleted.
All compound profiling experiments were performed using the same basic protocol. Yeast were cultured using standard techniques in complete synthetic media lacking uracil and containing yeast nitrogen base supplemented with 2% (w/v) glucose (SD-Ura) Starter cultures were inoculated in 3 mL SD-Ura media containing 0.01% tween and 0.2 mM palmitoleic and oleic acid. Cultures were incubated overnight in a 30° C. shaker incubator (225 rpm). Saturated morning cultures were centrifuged, washed in SD-Ura media lacking TWEEN-20 and fatty acids, and then diluted 1:20 in fresh SD-Ura media also lacking TWEEN-20 and fatty acids.
Compound administration was performed in two separate steps. First, 15 μL of SD-Ura was dispensed into clear 384-well assay plates using a MULTIDROP™ Combi reagent dispenser. […] The cultures described above were centrifuged and washed with media lacking TWEEN-20 or oleic and palmitoleic acids.
After yeast delivery, assay plates were incubated under humidified conditions at 30° C. for 40 h. Yeast growth was monitored by reading the OD600 of each well using a microplate reader (Perkin Elmer EnVision™).

Chain of human SCD5 (Q86SK9 whole entry): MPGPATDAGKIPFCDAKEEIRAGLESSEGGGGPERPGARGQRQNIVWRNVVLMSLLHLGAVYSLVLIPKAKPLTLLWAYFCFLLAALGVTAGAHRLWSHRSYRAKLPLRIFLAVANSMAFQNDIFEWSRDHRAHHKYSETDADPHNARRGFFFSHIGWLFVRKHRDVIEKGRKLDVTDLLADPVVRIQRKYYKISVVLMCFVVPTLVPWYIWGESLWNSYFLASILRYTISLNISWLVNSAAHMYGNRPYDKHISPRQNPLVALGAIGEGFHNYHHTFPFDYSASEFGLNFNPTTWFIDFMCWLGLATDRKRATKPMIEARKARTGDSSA
Chain of human SCD1 (O00767 whole entry): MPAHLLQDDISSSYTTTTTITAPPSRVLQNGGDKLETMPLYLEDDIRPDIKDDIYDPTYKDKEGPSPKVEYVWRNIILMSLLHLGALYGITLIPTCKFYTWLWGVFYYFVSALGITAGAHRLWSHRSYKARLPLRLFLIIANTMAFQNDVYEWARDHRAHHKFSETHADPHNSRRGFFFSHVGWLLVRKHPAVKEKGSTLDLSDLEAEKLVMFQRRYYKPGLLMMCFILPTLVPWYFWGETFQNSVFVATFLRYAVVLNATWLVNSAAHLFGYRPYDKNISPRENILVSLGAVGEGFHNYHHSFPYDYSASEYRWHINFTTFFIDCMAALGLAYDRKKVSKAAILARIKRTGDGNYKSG

Compound: Cc1nn(C)c(C)c1NC(=O)c1cc(-c2ccco2)on1 [Compound 1]
IC50 (human SCD1): > 45 µM
IC50 (human SCD5): > 45 µM

Compound: Cc1nn(Cc2ccc(Cl)c(Cl)c2)c(C)c1NC(=O)c1cc(-c2ccco2)on1 [Compound 3, N-(1-(3,4-dichlorobenzyl)-3,5-dimethyl-1H-pyrazol-4-yl)-5-(furan-2-yl)isoxazole-3-carboxamide]
IC50 (human SCD1): > 45 µM
IC50 (human SCD5): 7.15 µM

Compound: Cn1cc(NC(=O)c2cc(-c3ccco3)on2)cn1 [Compound 10]
IC50 (human SCD1): > 45 µM
IC50 (human SCD5): > 45 µM

Compound: CC(C)(C)OC(=O)n1cc(NC(=O)c2cc(-c3ccco3)on2)cn1 [Compound 12]
IC50 (human SCD1): > 45 µM
IC50 (human SCD5): > 45 µM

Compound: O=C(Nc1cnn(Cc2ccc(Cl)cc2)c1)c1cc(-c2ccco2)on1 [Compound 15]
IC50 (human SCD1): > 45 µM
IC50 (human SCD5): > 45 µM

Compound: O=C(Nc1cnn(Cc2ccc(C(F)(F)F)cc2)c1)c1cc(-c2ccco2)on1 [Compound 16]
IC50 (human SCD1): > 45 µM
IC50 (human SCD5): > 45 µM

Compound: Cc1c(NC(=O)c2cc(-c3ccco3)on2)cnn1Cc1ccc(Cl)c(Cl)c1 [Compound 21]
IC50 (human SCD1): > 45 µM
IC50 (human SCD5): > 45 µM

Compound: Cn1nc(Cc2ccc(Cl)c(Cl)c2)cc1NC(=O)c1cc(-c2ccco2)on1 [Compound 27]
IC50 (human SCD1): > 45 µM
IC50 (human SCD5): > 45 µM

Compound: O=C(Nc1cnn(Cc2ccc(Cl)c(Cl)c2)c1)c1cc(-c2ccco2)on1 [Compound 29]
IC50 (human SCD1): > 45 µM
IC50 (human SCD5): > 45 µM

Compound: O=C(Nc1cnn(CC2CCOCC2)c1)c1cc(-c2ccco2)on1 [Compound 31]
IC50 (human SCD1): > 45 µM
IC50 (human SCD5): > 45 µM

Compound: O=C(c1cc(-c2ccco2)on1)N(Cc1ccc(Cl)cc1)c1cnn(Cc2ccc(Cl)cc2)c1 [Compound 32]
IC50 (human SCD1): > 45 µM
IC50 (human SCD5): > 45 µM

Compound: O=C(Nc1cnn(-c2ccccc2)c1)c1cc(-c2ccco2)on1 [Compound 33]
IC50 (human SCD1): > 45 µM
IC50 (human SCD5): > 45 µM

Compound: O=C(Nc1cnn(CCCC(F)(F)F)c1)c1cc(-c2ccco2)on1 [Compound 34, 5-(2-furyl)-N-[1-(4,4,4-trifluorobutyl)pyrazol-4-yl]isoxazole-3-carboxamide]
IC50 (human SCD1): > 45 µM
IC50 (human SCD5): 6.42 µM

Compound: CC(C)(C)OC(=O)n1cc(NC(=O)c2cc(-c3ccccc3)on2)cn1 [Compound 35]
IC50 (human SCD1): 3.24 µM
IC50 (human SCD5): > 45 µM

Compound: O=C(Nc1cnn(Cc2cccc(F)c2)c1)c1cc(-c2cnccn2)on1 [Compound 45]
IC50 (human SCD1): 23.1 µM
IC50 (human SCD5): > 45 µM

Compound: O=C(Nc1cnn(Cc2cccc(F)c2)c1)c1cc(-c2ncccn2)on1 [Compound 46]
IC50 (human SCD1): 22.6 µM
IC50 (human SCD5): > 45 µM

Compound: O=C(Nc1cnn(CC2CCOC2)c1)c1cc(-c2ccccc2)on1 (stereo not shown) [Compound 50]
IC50 (human SCD1): 25.5 µM
IC50 (human SCD5): > 45 µM

Compound: O=C(Nc1cc(-c2ccco2)on1)c1cnn(Cc2ccc(Cl)c(Cl)c2)c1 [Compound 59]
IC50 (human SCD1): > 45 µM
IC50 (human SCD5): > 45 µM

Compound: O=C(Nc1cnn(Cc2ccc(F)c(F)c2)c1)c1cc(-c2ccccn2)on1 [Compound 61]
IC50 (human SCD1): 25.5 µM
IC50 (human SCD5): > 45 µM

Compound: O=C(c1cc(-c2ccccn2)on1)N(Cc1ccc(F)c(F)c1)c1cnn(Cc2ccc(F)c(F)c2)c1 [Compound 62, N-(3,4-difluorobenzyl)-N-(1-(3,4-difluorobenzyl)-1H-pyrazol-4-yl)-5-(pyridin-2-yl)isoxazole-3-carboxamide]
IC50 (human SCD1): > 45 µM
IC50 (human SCD5): 33.1 µM

Compound: Cc1ncc(-c2cc(C(=O)Nc3cnn(Cc4cccc(F)c4)c3)no2)o1 [Compound 67, N-(1-(3-fluorobenzyl)-1H-pyrazol-4-yl)-5-(2-methyloxazol-5-yl)isoxazole-3-carboxamide]
IC50 (human SCD1): 0.99 µM
IC50 (human SCD5): 7.89 µM

Compound: O=C(Nc1cnn(Cc2cccc(F)c2)c1)c1cc(-c2ccon2)on1 [Compound 72]
IC50 (human SCD1): 0.084 µM
IC50 (human SCD5): > 45 µM

Compound: Cn1cc(-c2cc(C(=O)N3CCC[C@H]3c3ccccc3)no2)ccc1=O [Compound 429]
IC50 (human SCD1): 36.3 µM

Compound: N#Cc1ccc(-c2cc(C(=O)N3CCC[C@H]3c3ccccc3)no2)nc1 [Compound 435]
IC50 (human SCD1): > 45 µM

Compound: Cn1c(=O)oc2ccc(-c3cc(C(=O)N4CCC[C@H]4c4ccccc4)no3)cc21 [Compound 444]
IC50 (human SCD1): > 45 µM

Compound: Cn1ccnc1C1CCCN1C(=O)c1cc(-c2ccc3c(c2)OCO3)on1 (stereo not shown) [Compound 446]
IC50 (human SCD1): > 45 µM

Compound: COc1ccc(C2CCCN2C(=O)c2cc(-c3ccc4c(c3)OCO4)on2)c(F)c1 (stereo not shown) [Compound 452]
IC50 (human SCD1): > 45 µM

Compound: COc1cccc(F)c1C1CCCN1C(=O)c1cc(-c2ccc3c(c2)OCO3)on1 (stereo not shown) [Compound 453]
IC50 (human SCD1): > 45 µM

Compound: Cn1nccc1-c1ccc2c(C(=O)N3CCC[C@H]3c3ccccc3)noc2c1 [Compound 454]
IC50 (human SCD1): > 45 µM

Compound: O=C(c1cc(-c2ccc3c(c2)OCO3)on1)N1CCCC1c1ccnc(Br)c1F (stereo not shown) [Compound 459]
IC50 (human SCD1): > 45 µM

Compound: O=C(c1cc(-c2ccc3c(c2)OCO3)on1)N1CCCC1c1ccncc1F (stereo not shown) [Compound 460]
IC50 (human SCD1): > 45 µM

Compound: O=C(c1cc(-c2ccc3c(c2)OCO3)on1)N1CCCC1c1nc2ccccc2o1 (stereo not shown) [Compound 461]
IC50 (human SCD1): > 45 µM

Compound: O=C(c1cc(N2CCOCC2)on1)N1CCC[C@H]1c1ccccc1 [Compound 463]
IC50 (human SCD1): > 45 µM

Compound: N-(1-(3-fluorobenzyl)-1H-pyrazol-4-yl)-5-(pyrimidin-4-yl)isoxazole-3-carboxamide [Compound 90]
IC50 (human SCD1): 1.1 µM

The remaining lines, values ahead:

IC50 (human SCD1): 32.8 µM
IC50 (human SCD5): 38.6 µM
Compound: Cc1nn(Cc2ccccc2)c(C)c1NC(=O)c1cc(-c2ccco2)on1 [Compound 2]

IC50 (human SCD1): > 45 µM
IC50 (human SCD5): 15.7 µM
Compound: CN(Cc1cccc(F)c1)C(=O)c1cc(-c2ccccc2)on1 [Compound 9]

IC50 (human SCD1): > 45 µM
IC50 (human SCD5): 4.87 µM
Compound: Cc1nn(Cc2ccc(Cl)c(Cl)c2)cc1NC(=O)c1cc(-c2ccco2)on1 [Compound 17, N-(1-(3,4-dichlorobenzyl)-3-methyl-1H-pyrazol-4-yl)-5-(furan-2-yl)isoxazole-3-carboxamide]

IC50 (human SCD1): > 45 µM
IC50 (human SCD5): > 45 µM
Compound: O=C(Nc1cnn(CCc2ccccc2)c1)c1cc(-c2ccco2)on1 [Compound 24]

IC50 (human SCD1): > 45 µM
IC50 (human SCD5): > 45 µM
Compound: O=C(Nc1cnn(Cc2cccnc2)c1)c1cc(-c2ccccc2)on1 [Compound 39]

IC50 (human SCD1): > 45 µM
IC50 (human SCD5): > 45 µM
Compound: O=C(Nc1cnn(Cc2ccccn2)c1)c1cc(-c2ccccc2)on1 [Compound 40]

IC50 (human SCD1): > 45 µM
IC50 (human SCD5): > 45 µM
Compound: O=C(Nc1cnn(CC2CC2)c1)c1cc(-c2ccccc2)on1 [Compound 41]

IC50 (human SCD1): > 45 µM
IC50 (human SCD5): > 45 µM
Compound: N#Cc1ccc(Cn2cc(NC(=O)c3cc(-c4ccccc4)on3)cn2)cc1 [Compound 42]

IC50 (human SCD1): > 45 µM
IC50 (human SCD5): > 45 µM
Compound: N#Cc1ccc(Cn2cc(NC(=O)c3cc(-c4ccccc4)on3)cn2)s1 [Compound 43]

IC50 (human SCD1): > 45 µM
IC50 (human SCD5): > 45 µM
Compound: O=C(Nc1cn(Cc2ccccc2)nn1)c1cc(-c2ccccc2)on1 [Compound 44]

IC50 (human SCD1): > 45 µM
IC50 (human SCD5): > 45 µM
Compound: N#Cc1ccc(CN(C(=O)c2cc(-c3ccccc3)on2)c2cnn(Cc3ccc(C#N)cc3)c2)cc1 [Compound 47]

IC50 (human SCD1): > 45 µM
IC50 (human SCD5): > 45 µM
Compound: NC(=O)c1cc(C(=O)Nc2cnn(Cc3ccccc3)c2)no1 [Compound 48]

IC50 (human SCD1): > 45 µM
IC50 (human SCD5): > 45 µM
Compound: CC(c1ccccc1)n1cc(NC(=O)c2cc(-c3ccccc3)on2)cn1 (stereo not shown) [Compound 51]

IC50 (human SCD1): > 45 µM
IC50 (human SCD5): > 45 µM
Compound: O=C(Nc1cnn(Cc2ccccc2)n1)c1cc(-c2ccccc2)on1 [Compound 52]

IC50 (human SCD1): 0.07 µM
IC50 (human SCD5): > 45 µM
Compound: O=C(Nc1cnn(Cc2cccc(F)c2)c1)c1cc(-c2ccccc2)on1 [Compound 53]

IC50 (human SCD1): 2.04 µM
IC50 (human SCD5): > 45 µM
Compound: O=C(Nc1cnn(Cc2cccc(F)c2)c1)c1cc(-c2ccccn2)on1 [Compound 54]

IC50 (human SCD1): 0.59 µM
IC50 (human SCD5): > 45 µM
Compound: O=C(Nc1cnn(Cc2cccc(F)c2)c1)c1cc(-c2cccnc2)on1 [Compound 55]

IC50 (human SCD1): 2.41 µM
IC50 (human SCD5): 2.69 µM
Compound: O=C(Nc1cnn(Cc2cccc(F)c2)c1)c1cc(-c2ccncc2)on1 [Compound 56, N-(1-(3-fluorobenzyl)-1H-pyrazol-4-yl)-5-(pyridin-4-yl)isoxazole-3-carboxamide]

IC50 (human SCD1): > 45 µM
IC50 (human SCD5): > 45 µM
Compound: N#Cc1ccc(Cn2cc(NC(=O)c3cc(-c4ccccc4)on3)cn2)nc1 [Compound 63]

IC50 (human SCD1): > 45 µM
IC50 (human SCD5): > 45 µM
Compound: CC(C)(c1ccccc1)n1cc(NC(=O)c2cc(-c3ccccc3)on2)cn1 [Compound 64]

IC50 (human SCD1): > 45 µM
IC50 (human SCD5): > 45 µM
Compound: CN(C)CCC(c1ccccc1)n1cc(NC(=O)c2cc(-c3ccccc3)on2)cn1 (stereo not shown) [Compound 65]

IC50 (human SCD1): 1.83 µM
IC50 (human SCD5): > 45 µM
Compound: Cc1nn(Cc2ccccc2)cc1NC(=O)c1cc(-c2ccccc2)on1 [Compound 66]

IC50 (human SCD1): > 45 µM
IC50 (human SCD5): > 45 µM
Compound: N#Cc1nn(Cc2ccccc2)cc1NC(=O)c1cc(-c2ccccc2)on1 [Compound 68]

IC50 (human SCD1): > 45 µM
IC50 (human SCD5): > 45 µM
Compound: CSCCC(c1ccccc1)n1cc(NC(=O)c2cc(-c3ccccc3)on2)cn1 (stereo not shown) [Compound 70]

IC50 (human SCD1): > 45 µM
IC50 (human SCD5): > 45 µM
Compound: C[S+]([O-])CCC(c1ccccc1)n1cc(NC(=O)c2cc(-c3ccccc3)on2)cn1 (stereo not shown) [Compound 71]
